Common to all, as to assay type: in vivo, male Sprague-Dawley rats
A short description of series [1]: Clinical chemistries in serum of rats. The following applies: for response vs control in vivo at 0.3 %: po, 96 h. The source says:
(§1) A typical experiment consisted of 4-6 groups of rats (N=5 per group) with 1 group being a control which received no MDL compound and the other groups being treated with 0.3% MDL compound. Some of the compounds were either repeated at 0.3% or evaluated again at the lower dose of 0.1%. Male Sprague-Dawley rats, 50-100 g, (Harlan Laboratories, Indianapolis, Ind.) were housed in groups of 5, fed ad libitum water and Purina Rodent chow (#5002) with or without MDL compound as a dietary admixture for 4 days. Dietary admixtures (0.3%) were made by mixing 1.2 grams of an MDL compound with 400 grams of Purina rodent chow (#5002). The MDL compound was mixed with approximately 50 grams of food using a mortar and pestle. This was added to the remainder of the food and mixed for 3 hours on a rotary mixer. In the morning of day 5, non-fasted rats were anesthetized with carbon dioxide, and blood was collected by cardiac puncture. Rats were sacrificed by cervical dislocation. Body weights and liver weights were recorded in grams. Food consumption was recorded as grams.cndot.day^-1.cndot.rat^-1. Deaths were recorded as mortality. Aliquots of fresh serum were used for clinical chemistries, thiobarbituric acid reactive substances (TBARS) and conjugated diene measurements. Aliquots of serum (~0.5mL) and whole livers were frozen at -20° C. for compound and metabolite concentration determination at a later time.
Blood was allowed to clot at room temperature for 30 minutes. Serum was obtained after centrifugation for 10 min at 4° C. at 3000 rpm in a Beckman J-6M/E centrifuge with a JS-4.2 rotor. Fresh serum was analyzed by a COBAS MIRA S autoanalyzer (Roche Diagnostics) using Roche diagnostic reagents for the following clinical chemistry measurements: alkaline phosphatase (ALP, kit #44553), alanine transaminase (ALT, kit #42375), aspartate aminotransferase (AST, kit #42381), total cholesterol (CHOL, kit #44334), triglyceride (TG, kit #44120), and glucose (GLU, kit #44558). ALP, ALT, and AST were calculated as units/L. Cholesterol, triglycerides, and glucose were calculated as mg/dL.

Series [2] in a line: Animal parameters (food, body weight, liver weight, mortality) in rats. The following applies: diet 0.3%, 4 days; for mortality at 96 h: in vivo, po, read-out: mortality (deaths per group); for mortality at 96 h / body wt., percent of control / lw/bw (liver weight/body weight), percent of control: rat.
Description: as §1

The test system of series [3] is oxidation of serum lipids. Put plainly: TBARS assay, rat serum. The note with it: po, 96 h, read-out: TBARS, percent of control.
Description: as §1
In this assay the oxidation of serum lipids is initiated with CuSO4, resulting in the formation of aldehydes, such as malondialdehyde (MDA). Upon incubation with thiobarbituric acid, the absorbance of the aldehydes can be detected at 530-540 nm. As stated in the previous example, TBARS values which are lower than control serum values indicate the relative ability of a test compound to inhibit the oxidation of lipids in a sample. TBARS were measured as follows: 100 μL of serum were mixed with 400 μL of a 5 mmol CuSO4 solution and incubated at 37° C. for 3 hr. The reactions were stopped by addition of 1.0 mL of 20% trichloroacetic acid. Then 1.0 mL of 0.67% thiobarbituric acid in 0.05N sodium hydroxide was added, mixed, and the samples incubated for 30 min at 90° C. Samples were centrifuged briefly to pellet undissolved material, and the supernatants were transferred to a 96-well microtiter plate. Absorbances were measured at 540 nm using a Biotek model EL311 microplate reader. The nmoles of MDA produced were calculated from a standard curve of 0 to 10 nmoles of MDA prepared from malonaldehyde bis(dimethylacetal). Serum samples from treated rats were compared to serum samples from control rats that received no MDL compound.

Series [4] in a line: HPLC quantitation of compound and metabolite concentration in rat serum and liver. The following applies: po, diet 0.3%, 4 days.
Description: as §1
Serum and liver concentrations of parent compound and the metabolites, bisphenol and diphenoquinone, were determined by reverse phase HPLC using a Waters 990 Powerline system. Livers (1 gram samples) were homogenized with 5.0 mL PBS, pH 7.4, using a Polytron tissue homogenizer at setting 5 for 20-30 seconds. Serum or liver homogenates were extracted as follows: 100μL of either serum or homogenate were added to 2.0 mL diethyl ether:ethanol (3:1) while vortexing the tube. The sample tubes were capped and centrifuged for 10 min at 5° C. at 3500 rpm in a Beckman GPKR centrifuge with a GH 3.7 rotor. The supernatants were transferred to clean tubes and dried under N2. Samples were reconstituted with 200 μL of acetonitrile:hexane:0.1M ammonium acetate (90:6.5:3.5, by vol.). Then, 100 μL were injected onto a Waters Deltapak C18-300 Å column, and eluted with an 83% acetonitrile:17% water mobile phase at a flow rate of 1.5 mL/min. Absorbances at the wavelengths of 240, 254, and 420 nm were recorded. Compound concentrations were calculated from known quantities of authentic parent compounds after correction for recovery; the range of recovery from spiked samples was 40 to 100%. The lowest detectable limit for this class of compounds was ~0.5 μg/mL. […]. Concentrations were calculated as μg/mL of serum and μg/g of liver.

[5] abbreviates: Rattus norvegicus, read-out: CHOL (total cholesterol), percent of control.
Setting [6] is: rat liver, read-out: Liver Parent = parent compound concentration.
The mark [7] stands for this setting: rat serum, read-out: Serum Parent = parent compound concentration.

Read-outs that look alike come from different tables or passages of the source.

As for `CC(C)(C)c1cc(SC[Si](C)(C)c2ccccc2)ccc1O` [MDL 104,571, 2-t-Butyl-4-[(dimethylphenylsilyl)methylthio]phenol], in series [1] (setting [5]), the response vs control in vivo at 0.3 % came out at 108%. In series [1] (rat serum, diet 0.3%, 4 days, read-out: TRIG (triglycerides), percent of control), the response vs control in vivo at 0.3 % is 119%. In series [1] (rat serum, diet 0.3%, 4 days), the “ALP (alkaline phosphatase), percent of control” value is recorded as 103%; the “ALT (alanine aminotransferase), percent of control” value is 109%; the “AST (aspartate aminotransferase), percent of control” value is on record as 103%; the “GLUC (glucose), percent of control” value is 96%. In series [2], the “food (grams eaten per day per rat), percent of control” value is 108%; the mortality at 96 h was found to be 0%; the “body wt., percent of control” value is 97%; the “lw/bw (liver weight/body weight), percent of control” value turned out to be 123%. Moreover, in series [3] (rat serum, diet 0.3%, 4 days), the response vs control in vivo at 0.3 % was determined as 58%. The concentration at 96 h in series [4] (setting [6]) was determined as 500 ng/g. Also, the concentration at 96 h in series [4] (setting [7]) was 1200 ng/mL.

For the compound `CC(C)(C)c1cc(OC[Si](C)(C)c2cccc(C(F)(F)F)c2)cc(C(C)(C)C)c1O` [MDL 105,726, 2,6-Di-t-butyl-4-[(dimethyl-3-trifluoromethylphenylsilyl)methyloxy]phenol], the response vs control in vivo at 0.3 % in series [1] (setting [5]) was 104%. In addition, the response vs control in vivo at 0.3 % in series [1] (Rattus norvegicus, read-out: TRIG (triglycerides), percent of control) amounted to 75%. In series [1] (rat serum, diet 0.3%, 4 days), the “ALP (alkaline phosphatase), percent of control” value was determined as 118%; the “ALT (alanine aminotransferase), percent of control” value came to 113%; the “AST (aspartate aminotransferase), percent of control” value is reported as 112%; the “GLUC (glucose), percent of control” value is reported as 105%. In addition, in series [2], the “food (grams eaten per day per rat), percent of control” value worked out at 112%; the mortality at 96 h was found to be 0%; the “body wt., percent of control” value came out at 105%; the “lw/bw (liver weight/body weight), percent of control” value is 120%. In series [3] (Rattus norvegicus), the response vs control in vivo at 0.3 % turned out to be 48%. Also, the concentration at 96 h in series [4] (setting [6]) was determined as 128000 ng/g. Besides, in series [4] (setting [7]), the concentration at 96 h is 17000 ng/mL.

For the origin of these results see US5608095A, “Alkyl-4-silyl-phenols and esters thereof as antiatherosclerotic agents” (Hoechst Marion Roussel, Inc., priority 1996, dated 1997).
